Data as given in ChEMBL document CHEMBL2176941, “Kinetic profile of amyloid formation in the presence of an aromatic inhibitor by nuclear magnetic resonance” (ACS Med Chem Lett, 2012).
Calls of active or inactive are those of the source. No cut-off for these calls is given here.

Tests used:
[1] = molecular target: T1, Islet amyloid polypeptide (Homo sapiens) (UniProt P10997); assay: Inhibition of IAPP assembly assessed as prenucleation period at 1:1 protein to compound ratio by NMR analysis
T1 sequence (whole entry): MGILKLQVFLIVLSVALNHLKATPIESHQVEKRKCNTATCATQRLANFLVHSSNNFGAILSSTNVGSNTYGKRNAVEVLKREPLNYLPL

[2] = molecular target: T1, Islet amyloid polypeptide (Homo sapiens); assay: Inhibition of IAPP fibrillation at 1:1 protein to compound ratio after 44 days by transmission electron microscopy
[3] = molecular target: T1, Islet amyloid polypeptide (Homo sapiens); assay: Inhibition of IAPP assembly at 1:1 protein to compound ratio after 1 to 5 days by circular dichroism spectra analysis
[4] = molecular target: T1, Islet amyloid polypeptide (Homo sapiens); assay: Inhibition of IAPP assembly at 1:1 protein to compound ratio after 29 days by NMR analysis
[5] = molecular target: T1, Islet amyloid polypeptide (Homo sapiens); assay: Inhibition of IAPP assembly at 1:1 protein to compound ratio after 18 to 31 days by NMR analysis
[6] = molecular target: T1, Islet amyloid polypeptide (Homo sapiens); assay: Inhibition of IAPP assembly assessed as nucleation period at 1:1 protein to compound ratio (reference value: 15.3 days)
[7] = molecular target: T1, Islet amyloid polypeptide (Homo sapiens); assay: Activity of IAPP assessed as maximal rate of self-assembly at 1:1 protein to compound ratio by NMR analysis (reference value: 12.2/day)
[8] = Inhibition of IAPP (11 to 25) S20G mutant assembly at 1:1 protein to compound ratio after 1 to 8 days by TOCSY spectra analysis

TIME [1]: 408 h
inhibition [2]: inactive
inhibition [3]: Active
inhibition [4]: inactive
inhibition [5]: Active
TIME [6]: 290 h
Activity [7]: 15.1 day⁻¹
inhibition [8]: Active
SMILES: COc1cc(/C=C/C(=O)CC(=O)/C=C/c2ccc(O)c(OC)c2)ccc1O
